# Measured values: patent publication US20240108602A1, “TREATMENT OF MENTAL DISORDERS” (GH Research Ireland Limited, priority 2022, published 2024)
# Like-named read-outs stand apart in the source and are kept apart here.
# Experiments:
# [1] = Plasma binding of 5-MIAA (unbound fraction); assay type: in vitro ADME
# Experimental: Binding to human plasma protein was determined. Reported are the unbound fraction (fu) for three replicates as well as the mean unbound fraction, the standard deviation and the mean % recovery (Table 8).
# [2] = 5-MeO-DMT, 5-MIAA and bufotenine in urine, serum and breastmilk of a lactating PPD patient, LC-MS/MS
# Experimental: The second patients was lactating, and, per the clinical trial protocol, breastmilk samples were collected pre-dosing and at multiple timepoints after administration of the last dose. […] Similar analyses were carried out on patient serum and urine samples.
# [3] = Daily Infant Dosage (DID) and Relative Infant Dose (RID) calculated from breast milk concentrations; details: 5 kg infant, three 250 ml feeds
# From the text: When determining the potential impact of maternal drug administration on a breastfed infant, it is standard practice to calculate the Relative Infant Dose (RID) (Bennett, P. N., and L. J. Notarianni. “Risk from drugs in breast milk: an analysis by relative dose.” Br J Clin Pharmacol 42.5 (1996): P673-4). The RID is the dosage (in μg/kg/day) the infant is exposed to by the intake of breast milk, divided by the dosage (in μg/kg/day) the mother receives.
# Using estimates for daily intake of breast milk and the number of feeds as well as the measured breast milk concentrations the exposure of the infant can be determined.
# For example, a published estimate for daily intake of breast milk as a function of infant weight is 150 ml/kg/day. To model the exposure, it is assumed that an infant of 5 kg is fed three times over 24 hours, receiving 250 ml breast milk each time.
# Since the amount actually delivered to the patient may be lower than the indicated dose, a calculation of the RID is also carried out assuming that the actually delivered amount is only 50% of the indicated dose so that any a potential underestimation of the infant exposure is avoided.
# human hepatocytes [4] = assay: Metabolite identification after incubation of 5-MeO-DMT with human hepatocytes; details: 5-MeO-DMT free base 10 μM, up to 120 minutes
# Experimental: For incubations with cryopreserved hepatocytes, the 2 mM stock solution was diluted with Leibovitz L-15 medium to a concentration of 20 μM or 2 μM. An aliquot (250 μL) of the 20 μM and 2 μM test substance formulations was added to each hepatocyte incubation sample (250 μL), as appropriate, so that the final test substance concentration in the incubations was 10 μM or 1 μM, respectively, and incubations contained less than 1% (v/v) solvent.
# Incubations were performed at ca. 37° C. in a shaking water bath (total incubation volume 0.5 mL). For 1 μM, incubations were terminated after 0, 5, 10, 20, 30, 60 and 120 minutes, by the addition of ice-cold acetonitrile (0.5 mL).
# The samples were vortex mixed and centrifuged at ca 13,000 rpm for 10 minutes at room temperature. Following centrifugation, the protein-free supernatants were removed for analysis.
# Blank control incubations were carried out with Leibovitz L-15 medium in place of the test substance. No cells control samples were performed with Leibovitz L-15 medium in place of hepatocytes. Aliquots of the blank control samples were taken at 120 minutes, while no cells control samples were taken at 0, 30 and 120 for 1 μM incubations and at 0 and 120 minutes for 10 μM incubations.
# All 1 μM incubations were performed in duplicate, while all 10 μM incubations were performed in singlet. All samples were stored at −80° C. (nominal) prior to analysis.
# Prior to sample analysis a 100 μL aliquot of each sample was evaporated to near dryness under a steady stream of nitrogen at room temperature, and subsequently reconstituted in 50 μL of mobile phase A (0.1% formic acid in water). Each sample (0, 30 and 120-minute, 10 μM) was analysed using accurate mass LC-MS to determine relative levels of parent compound at each time-point, and determine the profile of metabolites formed. Appropriate blank and control samples were also analysed. The 10 and 60-minute, 10 μM incubation samples were not analysed and were stored at −80° C. (nominal).
# Data were interrogated for the presence of metabolites by comparison of retention times with the test substance reference standard and based on the accurate masses of potential metabolites using screening software (UNIFI version 1.9.4), and user defined search parameters. To confirm a suspected metabolite, the measured accurate mass of the peak detected in the sample used for structural elucidation had to be within 5 ppm of the theoretical mass in order to confirm the molecular formula.
# [5] = Metabolic stability in Hμrel human hepatocyte co-culture model; details: human, Hμrel HumanPool primary human hepatocyte co-culture
# human hepatocytes [6] = assay: as above
# [7] = female, human, breast milk, inhaled
smiles,measurement,setting,value
"COc1ccc2[nH]cc(CC(=O)O)c2c1 [5-MIAA, 5-methoxyindole-3-acetic acid]",recovery,[1]; human,81.4%
same,fraction unbound,"[1]; human plasma, read-out: plasma binding (mean fraction unbound)",~0.5
same,fraction unbound,"[1]; human, read-out: Mean fu",0.502
same,fraction unbound,"[1]; human, read-out: unbound fraction (fu), Replicate 1",0.499
same,fraction unbound,"[1]; human, read-out: unbound fraction (fu), Replicate 2",0.462
same,fraction unbound,"[1]; human, read-out: unbound fraction (fu), Replicate 3",0.544
same,urine concentration relative to serum (times higher),[2]; 2.5 hours,approx. 127 times
same,Breastmilk concentration,[2]; 120.0 hrs after last dose,BLQ (BLQ: Below limit of quantification. The lower limit of quantification is 25 pg/ml for both 5-MeO-DMT and 5-MIAA in both serum and breastmilk; it is 25 pg/ml in urine for 5-MeO-DMT and 250 pg/ml for 5-MIAA in urine.)
same,concentration at 2.5 h,[2]; [7],13.2 ng/mL
same,concentration at 8.5 h,[2]; [7],0.359 ng/mL
same,concentration at 2.5 h,"[2]; female, human, urine, inhaled",13000 ng/mL
same,Breastmilk concentration,[2]; −24.0 hrs (pre-dosing),BLQ (BLQ: Below limit of quantification. The lower limit of quantification is 25 pg/ml for both 5-MeO-DMT and 5-MIAA in both serum and breastmilk; it is 25 pg/ml in urine for 5-MeO-DMT and 250 pg/ml for 5-MIAA in urine.)
same,Daily Infant Dosage (DID) of 5-MIAA,[3],0.006886 mg/day
same,Daily Infant Dosage (DID) of 5-MIAA per kg,[3],0.001377 mg/kg/day
same,Relative Proportion of compound after incubation of 5-MeO-DMT,human hepatocytes [4],about 60%
same,Relative Proportion of compound after incubation of 5-MeO-DMT,human hepatocytes [4]; listed as 5-Methoxyindole acetic acid (5-MIAA),61%
same,half-life at 1 μM,[5],10.7 days
same,hepatocyte CLint at 1 μM,[5],0.15 µL/min/1e6 cells
same,relative LC/MS peak area,"human hepatocytes [6]; 1 μM Hepatocytes, 0 h",100%
same,relative LC/MS peak area,"human hepatocytes [6]; 1 μM Hepatocytes, 1 h",98%
same,relative LC/MS peak area,"human hepatocytes [6]; 1 μM Hepatocytes, 2 h",100%
same,relative LC/MS peak area,"human hepatocytes [6]; 1 μM Hepatocytes, 4 h",99%
same,relative LC/MS peak area,"human hepatocytes [6]; 1 μM Hepatocytes, 8 h",95%
same,relative LC/MS peak area,"human hepatocytes [6]; 1 μM Hepatocytes, 24 h",99%
same,relative LC/MS peak area,"human hepatocytes [6]; 1 μM Hepatocytes, 48 h",88%
same,relative LC/MS peak area,"human hepatocytes [6]; 1 μM Hepatocytes, 72 h",82%
same,relative LC/MS peak area,"human hepatocytes [6]; 1 μM Stromal cells, 0 h",100%
same,relative LC/MS peak area,"human hepatocytes [6]; 1 μM Stromal cells, 4 h",103%
same,relative LC/MS peak area,"human hepatocytes [6]; 1 μM Stromal cells, 8 h",107%
same,relative LC/MS peak area,"human hepatocytes [6]; 1 μM Stromal cells, 24 h",108%
same,relative LC/MS peak area,"human hepatocytes [6]; 1 μM Stromal cells, 48 h",111%
same,relative LC/MS peak area,"human hepatocytes [6]; 1 μM Stromal cells, 72 h",135%
same,relative LC/MS peak area,"human hepatocytes [6]; 10 μM Hepatocytes, 0 h",100%
same,relative LC/MS peak area,"human hepatocytes [6]; 10 μM Hepatocytes, 1 h",97%
same,relative LC/MS peak area,"human hepatocytes [6]; 10 μM Hepatocytes, 2 h",100%
same,relative LC/MS peak area,"human hepatocytes [6]; 10 μM Hepatocytes, 4 h",103%
same,relative LC/MS peak area,"human hepatocytes [6]; 10 μM Hepatocytes, 8 h",96%
same,relative LC/MS peak area,"human hepatocytes [6]; 10 μM Hepatocytes, 24 h",96%
same,relative LC/MS peak area,"human hepatocytes [6]; 10 μM Hepatocytes, 48 h",86%
same,relative LC/MS peak area,"human hepatocytes [6]; 10 μM Hepatocytes, 72 h",75%
same,relative LC/MS peak area,"human hepatocytes [6]; 10 μM Stromal cells, 0 h",100%
same,relative LC/MS peak area,"human hepatocytes [6]; 10 μM Stromal cells, 4 h",101%
same,relative LC/MS peak area,"human hepatocytes [6]; 10 μM Stromal cells, 8 h",106%
same,relative LC/MS peak area,"human hepatocytes [6]; 10 μM Stromal cells, 24 h",97%
same,relative LC/MS peak area,"human hepatocytes [6]; 10 μM Stromal cells, 48 h",103%
same,relative LC/MS peak area,"human hepatocytes [6]; 10 μM Stromal cells, 72 h",115%
same,metabolic turnover,human hepatocytes [6]; human hepatocytes,low metabolic turnover
same,predicted hepatic extraction ratio,"human hepatocytes [6]; human, Hμrel HumanPool primary human hepatocyte co-culture",2%
same,remaining abundance after 72 h,"human hepatocytes [6]; in the presence of hepatocytes, 1 and 10 μM",75-82%
same,disappearance with stromal cell controls,human hepatocytes [6]; stromal cell controls,no disappearance
